Laboratory results reported in patent US8153589B2, “JNK3 as a target for the treatment of angiogenesis-related diseases” (The University of North Carolina at Chapel Hill, priority 2009, dated 2012).
Where two headings read alike, the source gives them in different places.

Legend:
[1] = test system: BAECs; assay: Boyden chamber migration assay; format: cell-based, bovine
Protocol: Boyden chamber assays were performed as previously described (40, 41) using a 48-well chamber apparatus (NeuroProbe, Cabin John, Md.). The lower chambers of the apparatus were filled with DMEM with or without SDF-1alpha and then covered with the collagen-coated filter and the upper chambers. Cells pretreated with or without the indicated inhibitors were then added to the upper chambers. After incubating for 6 h at 37° C., cells present on the lower surface were fixed, stained and identified with the 40× objective lens on a Nikon Eclipse TS 100 inverted microscope.
To determine whether eNOS activation is required for SDF-1α-mediated endothelial cell migration, we performed scratch-wound healing and Boyden chamber migration assays in the presence of the NOS-specific inhibitor L-NMMA (19). Confluent BAECs were pretreated for one hour with 1 mM or 5 mM L-NMMA or vehicle prior to each assay. […] Endothelial cells were transfected with 1 of 3 different bovine eNOS-specific siRNAs, or mixture of all three, and 72 hours later cell lysates were examined by western blot analysis for levels of eNOS protein.

[2] = test system: MKP7; assay: Biotin switch assay, MKP7 S-nitrosylation by NO donors in lysates of transfected HEK293T cells; format: biochemical
Protocol: (§1) Experiments were performed following the methods previously described by Dr. Stamler's laboratory (39). Cell lysates containing Flag or Myc-tagged MKP7 protein were treated with the indicated concentrations of GSNO followed by the addition of 2 volumes of HEN buffer and freshly prepared S-methyl methanethiosulfonate (10% v/v in N,N-dimethylformamide) and SDS (25% v/v) to final concentrations of 0.1 and 2.5%, respectively. Following frequent vortexing at 50° C. for 1 hour, proteins were precipitated with 3 volumes of acetone at −20° C. for 30 min. The proteins were recovered by centrifugation at 5,000×g for 5 min, followed by gentle rinsing of the pellet with 3×1 ml acetone. The pellets were then resuspended in 240 μl of HEN buffer containing 1% SDS. The resuspended protein was precipitated, rinsed and resuspended once more. For labeling, the blocked samples were mixed with 0.1 volume of biotin-HPDP (2.5 mg/ml in Me2SO) and 0.1 volume of HEN (control) or freshly prepared sodium Ascorbic acid in HEN buffer. Labeling reactions were performed in the dark at room temperature for 1 h unless otherwise indicated. To detect an MKP7 SNO protein from cells or lysates, the labeling reaction was acetone-precipitated as previously described. The washed pellet was resuspended in 250 μl of HEN/10 (HEN diluted 10-fold into H2O) containing 1% SDS, followed by addition of 750 μl of neutralization buffer (25 mM HEPES, 100 mM NaCl, 1 mM ETDA, 1% Triton X-100, pH 7.5). This material was incubated overnight at 4° C. with 40 μl of streptavidin-agarose beads. The beads were washed with 3×1 ml of wash buffer (neutralization buffer+500 mM NaCl) and 2×1 ml of neutralization buffer. The dried beads were eluted with 50 μl of HEN/10+1%-mercaptoethanol. The eluted mixture was then analyzed by SDS-PAGE, followed by immunoblotting with anti-Flag-HRP (1:5000) or antibodies.
(§2) The preceding experiments indicate that eNOS and its downstream effector JNK3 are required for SDF-1α-induced endothelial cell migration. However, the molecular mechanisms of eNOS-dependent regulation of JNK3 activity are not intuitive. In the course of exploring various potential regulatory mechanisms, we considered the possibility that regulation of JNK3 by eNOS was determined by suppression of dephosphorylation activities. When cells were incubated with sodium orthovanadate, an inhibitor of protein tyrosine and dual-specificity protein phosphatases, JNK phosphorylation increased both under basal conditions and, most prominently, after SDF-1α treatment (FIG. 3A). […] MKP7, a member of the dual-specificity family of protein phosphatases, interacts with the JNK3 scaffold protein β-arrestin2 (25). Located within the N-terminal catalytic domain of MKP7, the Cys^244 residue is highly sensitive to oxidation due to its low pKa and this oxidation is required for decreased MKP7 activity and sustained activation of JNK3 under certain conditions (26). […] MKP7 S-nitrosylation was also detected with another NO donor-DETA NONOate; the addition of DTT blocked its nitrosylation (data not shown). To further explore the nitrosylation of MKP7 by NO donors, SNOs in MKP7 were replaced with biotin (biotin switch), and peptides generated by trypsinization were purified by avidin chromatography and analyzed by MALDI-TOF and ESI-MS/MS. […]

[3] = test system: JNK3; assay: JNK activation (phospho-JNK Western blot) in BAECs; format: cell-based, bovine; details: for SDF-1α-induced JNK phosphorylation in siRNA-transfected cells: BAECs, 50 ng/ml SDF-1alpha for 10 minutes
Protocol: (§3) Cells were harvested in lysis buffer (1% Triton X-100, 50 mM Tris, pH 7.4, 150 mM NaCl, 1 mM Na3VO4 and 0.1% protease inhibitor tablet; Roche) and clarified by centrifugation at 16,000 g. Equal amounts of proteins were incubated with a specific antibody overnight at 4° C. with gentle rotation. Protein A/G Plus-agarose beads (Santa Cruz Biotechnology, Santa Cruz, Calif.) were used to pull down the antibody complexes. Afterward, beads were washed with lysis buffer, and immune complexes were separated by SDS-PAGE. Total cell lysates were separated by SDS-PAGE and transferred to nitrocellulose membranes.
Mitogen-activated protein kinases (MAPKs), including ERK1/2 and p38, have been reported to enhance angiogenesis (20, 21). However, the role of JNK in angiogenesis remains controversial, with studies showing both positive and negative outcomes of JNK activation. In order to determine which MAPKs are involved in SDF-1α-induced endothelial cell migration, we screened the activities and expression levels of ERK1/2, p38 and JNK following treatment of BAECs with SDF-1α. […] SDF-1α activated both JNK and ERK1/2 in a dose-dependent manner (FIG. 2B). […] Protein and mRNA for all three JNK isoforms, JNK1, JNK2 and JNK3, can be found in BAECs (FIGS. 5, A&B). In order to determine which JNK protein(s) was activated by SDF-1α in these cells we used a previously described assay (22). Exogenous JNK1, JNK2 and JNK3 proteins containing Flag or GFP-epitopes were transiently expressed in BAECs and their activities were determined via western blotting with a phospho-JNK antibody following SDF-1α treatment. […] To confirm the finding that JNK3 is the only JNK entity activated by SDF-1α, we transfected cells with siRNAs for each of the JNK proteins and then tested the effect of each siRNA for the ability to suppress SDF-1α-induced JNK activation. […] Because JNK3 was the only SDF-1α-activated JNK in endothelial cells in our studies (FIG. 2C & FIG. 5, C), we consider the phospho-JNK signals in western blots with anti-phospho-JNK antibody as the signals for activated JNK3.

[4] = test system: BAECs; assay: In vitro Matrigel angiogenesis (tube formation) assay; format: cell-based, bovine; details: siRNA-expressing cells
Protocol: Endothelial cell tube formation was analyzed with the Matrigel-based tube formation assay (40, 41). Chilled 24-well plates were coated with growth factor-reduced Matrigel (Becton Dickinson, San Jose, Calif.) that was polymerized at 37° C. for 30 min. BAECs were transfected with siRNA constructs with the Amaxa Nucleofector electroporation reagent. Three days later, cells were trypsinized, and plated at equal numbers into each Matrigel-coated well. After 18 hours of incubation in the absence or presence of SDF-1alpha, the formation of tubes was photographed (Eclipse, 10× objective, TS100Nikon). Images were quantified with ImageJ.
Endothelial cell migration is a critical step for tube formation during angiogenesis. To test the importance of JNK3 in highly ordered cell assembly processes, we examined the effect of JNK knockdown with siRNAs on the formation of capillary-like tubes in Matrigel. BAECs were transfected with JNK1 siRNA, JNK2 siRNA, JNK3 siRNA or control siRNA. After 72 hours, cells were plated on Matrigel in medium containing 50 ng/ml SDF-1α.

[5] = test system: ERK1/2; assay: ERK1/2 activation, Western blot in BAECs; format: cell-based, bovine; details: L-NMMA, SDF-1α-treated BAECs
Protocol: as §3
Mitogen-activated protein kinases (MAPKs), including ERK1/2 and p38, have been reported to enhance angiogenesis (20, 21). However, the role of JNK in angiogenesis remains controversial, with studies showing both positive and negative outcomes of JNK activation. In order to determine which MAPKs are involved in SDF-1α-induced endothelial cell migration, we screened the activities and expression levels of ERK1/2, p38 and JNK following treatment of BAECs with SDF-1α. […] SDF-1α activated both JNK and ERK1/2 in a dose-dependent manner (FIG. 2B). […] Exogenous JNK1, JNK2 and JNK3 proteins containing Flag or GFP-epitopes were transiently expressed in BAECs and their activities were determined via western blotting with a phospho-JNK antibody following SDF-1α treatment. […]

[6] = test system: BAECs; assay: Scratch wound healing assay; format: cell-based, bovine; details: L-NMMA pretreatment (1 mM or 5 mM, one hour) plus 50 ng/ml SDF-1alpha
Protocol: For detection of cell migration, a wound healing assay was performed as previously described (40). BAECs were grown on 35 mm wells, the monolayer was scratched with a sterile disposable rubber policeman and the edge labeled with a traced line. After injury, the cells were gently washed with normal media without serum. EC migration from the edge of the injured monolayer was quantified by measuring the area between the wound edges before and the recovered area after injury using light microscopy (Eclipse TS100, 4× objective, Nikon) and the computer program ImageJ.
To determine whether eNOS activation is required for SDF-1α-mediated endothelial cell migration, we performed scratch-wound healing and Boyden chamber migration assays in the presence of the NOS-specific inhibitor L-NMMA (19). Confluent BAECs were pretreated for one hour with 1 mM or 5 mM L-NMMA or vehicle prior to each assay. […] Similarly, cell migration in Boyden chambers was induced by SDF-1α (from 8±3 to 86±5 cells per field), but this increase in migration was inhibited by the pre-incubation of BAECs with L-NMMA (FIG. 1D). The involvement of eNOS in SDF-1α-induced endothelial cell migration was confirmed by treatment of cells with siRNAs specific for eNOS. […]

[7] = target: T1, MKP7 (Homo sapiens, UniProt Q9BY84, C244S); assay: Biotin switch assay, MKP7 S-nitrosylation by NO donors in lysates of transfected HEK293T cells; format: biochemical
T1 construct: the mutants of full-length MKP7, MKP7-C244S and MKP7-C244A; expressed in transfected cells; host or cells: HEK293T
T1 sequence (Q9BY84 1-317 C244S): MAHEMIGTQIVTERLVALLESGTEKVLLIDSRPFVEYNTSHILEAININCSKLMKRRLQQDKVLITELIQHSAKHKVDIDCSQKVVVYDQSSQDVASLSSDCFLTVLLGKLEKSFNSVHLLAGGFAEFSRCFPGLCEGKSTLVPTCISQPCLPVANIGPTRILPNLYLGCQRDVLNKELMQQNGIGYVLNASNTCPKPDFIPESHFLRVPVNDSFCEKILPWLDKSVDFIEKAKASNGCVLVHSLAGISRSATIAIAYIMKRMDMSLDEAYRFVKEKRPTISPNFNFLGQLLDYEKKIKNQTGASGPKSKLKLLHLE
Protocol: as §1, §2

[8] = test system: MKP7; format: biochemical
Protocol: (§4) Flag-MKP7 protein was prepared from the cells transfected with Flag-MKP7 by immunoprecipitation using Flag beads (Sigma). The precipitate was washed twice with lysis buffer containing high salt (1 M NaCl) followed by 2 washes with the reaction buffer. In vitro phosphatase reactions were carried out at 37° C. for 1 hour in I.V.P.A buffer (20 mM Tris⊕HCl, pH7.0, 0.1 mM MgCl2, 1 mM MnCl2, 1 ┌g/┌1 BSA, 1 mM DTT in reduced samples) with 25 ng active JNK3 purified protein (Upstate). The reaction was stopped by the addition of 2× loading buffer followed by western blotting analysis with phospho-specific JNK and JNK antibodies.
(§5) To determine whether this S-nitrosylation event affected MKP7 activity, we performed an in vitro phosphatase activity analysis using activated JNK3 protein in a reaction with MKP7-concentrated cell lysates. […] The activities of these mutants were also evaluated using an in vitro phosphatase assay.

[9] = target: T1, MKP7; format: biochemical
Protocol: as §4, §5

[10] = Myc-MKP7, GSNO 500 μM, 10 minutes

Oc1c2ccccc2c2c3c(cccc13)N=N2 [SP600125]
SDF-1α-mediated endothelial cell migration ([1]; 10 μM SP600125, 50 ng/ml SDF-1alpha): 27±3 cells | SDF-1α-mediated endothelial cell migration ([1]; 50 μM SP600125, 50 ng/ml SDF-1alpha): 20±2 cells

NCCN(CCN)/[N+]([O-])=N/O [DETA NONOate]
S-nitrosylation of MKP7 [2, 10]: detected

O[C@@H](CS)[C@@H](O)CS [DTT]
S-nitrosylation of MKP7 [2, 10]: blocked

JNK1 siRNA: AUAACAAAUCCCUUGCCUGACUGGC (SEQ ID NO:4) (listed as RNA, chemistry not given here)
SDF-1α-induced JNK phosphorylation in siRNA-transfected cells [3]: significantly enhanced | tube length ([4]; with 50 ng/ml SDF-1α): 438±108 μm | tube length ([4]; without SDF-1α): 88±23 μm

CNC(=N)NCCC[C@H](N)C(=O)O [L-NMMA, reference compound]
JNK3 activation induced by SDF-1α ([3]; 0.5-5 mM L-NMMA, 50 ng/ml SDF-1alpha for 5 minutes): specifically inhibited | ERK activation [5]: not affected | BAEC migration towards the wounded area [6]: 17.7±2.4% | SDF-1α-induced increase in migration in Boyden chambers ([1]; pre-incubation with L-NMMA, 50 ng/ml SDF-1alpha): inhibited

N[C@@H](CCC(=O)N[C@@H](CSN=O)C(=O)NCC(=O)O)C(=O)O [GSNO, nitrosoglutathione]
S-nitrosylation of MKP7 [2]: S-nitrosylated | nitrosylation of MKP7-WT and MKP7-ΔC [2]: strongly nitrosylated | nitrosylation of MKP7-ΔC (C244S) compared to MKP7-ΔC [7]: markedly attenuated | MKP7 phosphatase activity [8]: markedly inhibited | phosphatase activity of MKP7-WT and MKP7-ΔC [8]: decreased dramatically | phosphatase activity of MKP7-ΔC (C244S) [9]: essentially unchanged

[Na+].[Na+].[Na+].[O]=[V]([O-])([O-])[O-] [sodium orthovanadate, reference compound]
JNK phosphorylation ([3]; Na3VO4 10, 100, 500 μM, basal and after 50 ng/ml SDF-1α): increased

JNK2 siRNA: AGUUGAGUCU GCCACUUGUACACUG (SEQ ID NO:5) (AGUUGAGUCUGCCACUUGUACACUG; listed as RNA, chemistry not given here)
SDF-1α-induced JNK phosphorylation in siRNA-transfected cells [3]: significantly enhanced | tube length ([4]; with 50 ng/ml SDF-1α): 504±93 μm | tube length ([4]; without SDF-1α): 121±61 μm

N#CC(=C(/N)Sc1ccccc1N)/C(C#N)=C(\N)Sc1ccccc1N [U0126]
endothelial cell migration induced by SDF-1α ([1]; 20 μM U0126 (data not shown)): decreased
